Data on 87 compounds can be found in a melting point compilation (Tetko et al.; mined from patent text by program, amines drawn as free bases though some values may be those of a salt).

The structures appear in SMILES notation. Non-standard residues stand in square brackets, D forms with d. Residues, ends and D or L forms follow the SMILES beside them. *: point of attachment. pGlu = O=C1CC[CH](C(=O)O)N1; Morpholide = C1CN(*)CCO1; Thz = O=C(O)[CH]1CSCN1 Some results are limits rather than exact numbers.

Broadly, the melting point is the temperature of the solid-liquid transition. Compound `O=C1CCC(C(=O)N2CSCC2C(=O)N2CCOCC2)N1` (configuration not stated) ([pGlu]-[Thz]-Morpholide; configuration not given here) had a melting point of 187 to 188 °C.

With `CSc1nc(O)c(C(N)=O)c(O)n1`, the melting point is greater than 360 °C.

Regarding `CC(C)n1nc(-c2nc(S(C)(=O)=O)c(N)nc2-c2ccccc2)ccc1=O`, the melting point was in the range of 249 to 251 °C.

Turning to `COc1cc2c(=O)n(C(C)CN(C)C)c3c4cc5c(cc4ncc3c2cc1OC)OCO5` (configuration not stated), the melting point fell in the range of 186 to 187 °C.

Regarding `O=C(N[C@@H](Cc1ccccc1)[C@@H](O)[C@H](O)[C@H](Cc1ccccc1)NC(=O)OCc1cccnc1)OCc1cccnc1`, the melting point fell in the range of 180 to 186 °C.

`O=C1C(=O)N(CCN2CCN(C(c3ccccc3)c3ccccc3)CC2)c2ccccc21` returned a melting point of 145 to 148 °C.

For `COC(=O)C=CC(=O)Nc1ccc(Cl)cc1C(=O)NC(C)C1CC1` (configuration not stated), the melting point stood at 131 °C.

Compound `CNc1cc(OC)c(-c2nc(C)c(-c3cccnc3)[nH]2)cc1Cl` had a melting point of 205 to 206 °C.

As for `Cc1cc(F)ccc1-c1cnccn1`, the melting point lay in the range of 66 to 68 °C.

For `Clc1ccc2nc3c(nc2c1)-c1cccc2cccc-3c12`, the melting point lay within 224 to 225 °C.

As to `COC(=O)C(C)(C)OCc1cc2nc(C(F)(F)F)ccc2n1S(=O)(=O)c1ccc2ncsc2c1`, the melting point was 124 to 127 °C.

Consider `CCN(CC)C(=O)CN1C(=O)C(NC(=O)Nc2ccccc2Cl)N=C(c2ccccc2)c2ccccc21` (configuration not stated), for which the melting point fell in the range of 173 to 175 °C.

Compound `O=C(NCCCSc1ccncc1)c1ccccc1` returned a melting point of 120 to 121 °C.

On to `Cc1ccc(C(=O)Nc2ccc(N3CCN(C)CC3)c(C(F)(F)F)c2)cc1Nc1nccc(-c2cccnc2)n1`, for which the melting point lay within 214 to 217 °C.

In turn, `CCSc1cc(C(C)(C)C)c(O)c(C(C)(C)C)c1` displayed a melting point of 33 °C.

In turn, `Cc1cc(-c2cc(C(F)(F)F)nc(-c3ccnc(-c4ccc(S(N)(=O)=O)s4)c3)n2)ccc1Cl` displayed a melting point of 280 °C.

For `O=C(OC1Oc2ccccc2-n2cnc(-c3noc(C4CC4)n3)c21)c1ccccc1` (configuration not stated), the melting point lay within 165 to 167 °C.

For the compound `O=C(c1ccc2c(c1)C(=O)N1CCC[C@H]1CO2)N1CCCCC1`, the melting point was 140 °C.

As to `Nc1nc(SC2CCCC2)c2ncn(C3C=CC(CO)C3)c2n1` (configuration not stated), the melting point lay within 167 to 169 °C.

Take `Cc1cccc(Nc2cc(Nc3ccc(OCCCO)cc3)ncn2)c1`: the melting point was 196 to 200 °C.

Turning to `COc1cccc2c1cc(C)n2Cc1c(Cl)cccc1Cl`, the melting point lay in the range of 154 to 157 °C.

Compound `Cc1c(C(=O)NN2CCCCC2)nn(-c2ccc(Cl)cc2Cl)c1-c1ccc(OS(=O)(=O)CCC(F)(F)F)cc1` displayed a melting point of 160 °C.

As to `COc1cc(NS(=O)(=O)CCCCl)cc(OC)c1`, the melting point lay within 68 to 71 °C.

In turn, `N#CC1=C(C2CCN(C(=O)c3ccccc3)CC2)Nc2n[nH]cc2C1c1cccc2nonc12` (configuration not stated) yielded a melting point of 228 °C.

Take `CCOC(=O)C=Cc1ccc(OCCCCOCc2ccccc2)nc1NC(=O)C(C)(C)C`: the melting point was 75 to 76 °C.

`CCCCCCCCCCCCCCCCCCC1CNc2cc(C(=O)O)ccc21` (racemic) returned a melting point of 112 to 114 °C.

`COC(=O)c1sc2cc(OCc3cccnc3)ccc2c1Cl`: the melting point fell in the range of 148 to 150 °C.

Compound `COc1cccc(C=CC(=O)C(=O)O)c1OC` came in with a melting point of 136 to 138 °C.

For `C=C(C)C(=O)OCCCCCc1ccc(C(F)(F)Oc2ccc(OC(F)(F)c3ccc(CCCCCOC(=O)C(=C)C)cc3)c(C)c2)cc1`, the melting point turned out to be 26 °C.

`CCc1[nH]n(C2CCCC2)c2nc(Cc3cccc(O)c3)nc(=O)c1-2` returned a melting point of 195 to 197 °C.

Compound `Cc1cc(OCc2cnc(-c3ccc(C(F)(F)F)nc3)nc2C2CC2)ccc1OC(C)(C)C(=O)O` yielded a melting point of 185 to 186 °C.

`CCSc1cnc(Cl)cc1C#N` showed a melting point of 112 to 114 °C.

Turning to `Cn1ccc(-c2ccc(F)cc2)c1-c1ccc(F)cc1`, the melting point is 129 to 130 °C.

Consider `Cc1ccc(CCN2C(=O)COc3ccc(C=C4SC(=S)NC4=O)cc32)cc1`, for which the melting point lay in the range of 267 to 269 °C.

Consider `O=C1CCCN1c1cccc(-n2cnc3cc(Br)cnc32)c1`, for which the melting point lay in the range of 194 to 195 °C.

The compound `CNC(=O)/C(=N/OC)c1ccccc1COc1ccc(-c2ccccc2)cc1` gave a melting point of 136 to 137 °C.

For the compound `C=CCN1CC(c2ccc(NC(=O)OCc3ccccc3)cc2F)CCS1(=O)=O` (configuration not stated), the melting point was in the range of 138 to 140 °C.

Turning to `COc1cc(C(C)C)nn1C`, the melting point lay within 114 to 115 °C.

The compound `COC(=O)c1ccc(Cc2cn(C)c3ccc(CCNC(=O)N(C)C)cc23)c(OC)c1` showed a melting point of 122 to 124 °C.

In turn, `OC[C@H](F)[C@H](OCc1ccccc1)[C@H](OCc1ccccc1)[C@@H](O)C(F)(F)F` displayed a melting point of 64 to 65 °C.

Consider `CCC(=O)OCOC(=O)Oc1ccc([N+](=O)[O-])cc1`, for which the melting point fell in the range of 35 to 36 °C.

In turn, `CS(=O)(=O)c1ccc(C=CCN2CCc3nc(N)sc3CC2)cc1` had a melting point of 157 to 161 °C.

In turn, `CC(C)(C)NS(=O)(=O)c1ccc(-c2cn(-c3cc(-c4ccc(C(F)(F)F)cc4)cc(C(F)(F)F)n3)cn2)s1` displayed a melting point greater than 250 °C.

In turn, `O=C(C=Cc1cccnc1)NCCCCN1CCN(C(c2ccccc2)c2ccccc2)CC1` yielded a melting point of 143 to 144 °C.

In turn, `NS(=O)(=O)c1cc(C(=O)O)cc(NCc2ccccc2)c1NCCc1ccccc1` registered a melting point of 203 °C.

For the compound `Cc1ccc(N(CCN2CCC(C(=O)c3ccc(F)cc3)CC2)C(=O)c2cccc([N+](=O)[O-])c2)cc1`, the melting point was in the range of 131 to 134 °C.

The compound `COc1ccc(-c2nc3sccn3c2/C=C/C(=O)c2cccs2)cc1` came in with a melting point of 169 to 172 °C.

With `CCC(=O)C1=C(O)CC(c2ccc3ccccc3c2)CC1=O` (configuration not stated), the melting point turned out to be 125 °C.

Consider `CCC(C)N(C(=O)c1ccccc1C(N)=O)c1ccc(Cn2nnn(-c3ccc(C(F)(F)F)cc3)c2=O)cc1C` (configuration not stated), for which the melting point fell in the range of 217 to 218 °C.

With `CN1C(=O)C2CCCN2Cc2cc(Cl)ccc21` (configuration not stated), the melting point was in the range of 97 to 99 °C.

`CC(C)(C)OC(=O)N1CCn2c(Cl)c(-c3cccc(C#N)c3)c(C(=O)O)c2C1` had a melting point of 208 to 210 °C.

In the case of `N#Cc1c(C(F)(F)F)ccc(Cl)c1F`, the melting point fell in the range of 43 to 44 °C.

The compound `CC1(C)NC(=O)c2ccc(Oc3nnnn3-c3ccccc3)cc21` gave a melting point of 202 to 204 °C.

For the compound `CCOc1ccc(NC(=O)c2c[nH]c3c2C(=O)C(C)(C)CC3)c(F)c1`, the melting point lay in the range of 218 to 219 °C.

As for `CCC(=O)NCC1CC1c1cccc2nscc12` (configuration not stated), the melting point lay in the range of 84 to 86 °C.

For `CC(C)Cn1c(C(=O)OC(C)(C)C)c(-c2ccccc2)c2cc(OCc3ccccc3)ccc2c1=O`, the melting point fell in the range of 138 to 139 °C.

In turn, `CCCCCN(CCc1ccccc1)C(=O)NCC(C)Cc1ccncc1` (configuration not stated) yielded a melting point of 49 to 50 °C.

Take `O=[N+]([O-])c1ccc(C2(Cn3cncn3)OCCO2)cc1`: the melting point was determined as 160 °C.

`CCOc1cc(Oc2ccc(S(C)(=O)=O)nc2)cc2cc(C3=NCC(CC(N)=O)S3)[nH]c12` (configuration not stated) yielded a melting point of 195 to 196 °C.

Consider `CCOC(=O)c1nc(NC)sc1C(=O)CC`, for which the melting point lay in the range of 84 to 86 °C.

In turn, `COc1cccc2c(=O)[nH]c(-c3cc(C)c(OCCN4CCCC4)c(C)c3)nc12` gave a melting point of 231 to 232 °C.

Consider `BrC1=C(Br)C(Br)(Br)C(Br)=C1Br`, for which the melting point lay in the range of 87 to 88 °C.

Take `COc1c(Cc2ccccc2)cc(S(N)(=O)=O)c2ccccc12`: the melting point is 159 to 161 °C.

In turn, `CC(C)(C)N1C(=O)C(=O)N(c2cc(Cl)cc(Cl)c2)S1=O` (configuration not stated) returned a melting point of 182 °C.

In turn, `Cc1ccc2nc(CCl)[nH]c(=O)c2c1` registered a melting point of 263 to 265 °C.

In turn, `c1ccc(COc2ccc(CCCCn3cncn3)cc2)cc1` had a melting point of 68 to 69 °C.

For the compound `Cn1cc(-c2cc(-c3cnc4c(c3)CCC(=O)N4)ccn2)n(-c2ccc(C(C)(C)C#N)cc2)c1=O`, the melting point turned out to be 284 °C.

For `COC(=O)[C@@]12CO[C@@H](C(C)(C)C)N1C(=O)[C@@H](C)C2`, the melting point was in the range of 107 to 108 °C.

Compound `CCCCc1ccc(S(=O)(=O)Nc2nncs2)cc1` gave a melting point of 120 to 121 °C.

`CC(C)(C)OC(=O)NC1CCCCC1NC(=O)c1ccccn1` (configuration not stated) yielded a melting point of 78 to 79 °C.

`O=Cc1ccc2c(=O)c3ccccc3ccc2c1`: the melting point is 149 to 152 °C.

As for `CC(=O)C(=C1NCCCS1)[N+](=O)[O-]`, the melting point was in the range of 110 to 113 °C.

Take `COC(=O)c1sc2cccc(OC)c2c1N(C)C`: the melting point was in the range of 69 to 73 °C.

For `CCCCCCN(C(=O)Nc1ccc(C(=O)O)cc1)c1ccc2c(c1)C(C)(C)CCC2(C)C`, the melting point worked out at 177 °C.

Compound `O=C(O)c1c2c(nc3ccc(F)cc13)-c1ccc(-c3ccc(F)cc3)cc1CC2` gave a melting point greater than 300 °C.

The compound `Oc1ccc2c(c1)C(c1ccc(OCCN3CCCCC3)cc1)c1c-2ccc2ccccc12` (configuration not stated) gave a melting point of 180 to 181 °C.

Regarding `O=C1Nc2ccccc2C12COc1cc(F)c(F)cc12` (configuration not stated), the melting point was greater than 200 °C.

On to `O=c1c(C2=CS(=O)(=O)c3cc(NS(=O)(=O)c4ccccc4)ccc3N2)c(O)c2cc(F)ccc2n1CCC1CC1`, for which the melting point is greater than 200 °C.

As for `Cc1cccc(-c2sc(N)nc2-c2ccnc(-c3ccc(OCC(=O)N4CCOCC4)cc3)c2)n1`, the melting point turned out to be 172 °C.

Take `CCOC(=O)C(C)c1ccc(-c2ccc(F)cc2F)c(F)c1` (configuration not stated): the melting point fell in the range of 36 to 38 °C.

As for `O=C(NC1CCC1)c1cc(Nc2nc(Cl)nc3ccoc23)[nH]n1`, the melting point amounted to 277 °C.

Turning to `CCOC(=O)c1cc2oc3c(n2n1)CCCC3`, the melting point lay in the range of 55 to 57 °C.

`O=C(O)c1cn(C2CC2)c2c(F)c(N3CCC(N=Cc4ccc(Cl)cc4)C3)c(F)cc2c1=O` (configuration not stated) yielded a melting point of 232 to 237 °C.

For `CCCCc1c(Cl)cccc1NC(=O)C(C)(C)C`, the melting point is 88 to 89 °C.

`Cc1sc(-c2cccc(F)c2)nc1O` had a melting point of 162 to 163 °C.

With `Nc1n[nH]c2c(F)cccc12`, the melting point was determined as 170 °C.

In turn, `COc1ccc2c(c1)C=C(C=O)CO2` gave a melting point of 49 to 50 °C.
